Patent US8697662B2, “Methods for treating Kaposi sarcoma” (PTC Therapeutics, Inc., priority 2009, dated 2014)

How the values were obtained:
[1] = tested on: HT1080 xenografts; test: Dose response assessment in nude mice bearing HT1080 xenografts (tumor and plasma human VEGF, tumor size, trough plasma level); type: in vivo, athymic nude mice
Method: Experimental Study Design. HT1080 cells (5×10^6 cells/mouse) were implanted subcutaneously in male athymic nude mice.
Tumor size was measured using calipers at periodic intervals during the study (data shown in Section 9.2.2). […] Mice were sacrificed, and excised tumors were homogenized in buffer containing protease inhibitors. Both terminal intratumoral and pathologic plasma human VEGF levels were measured using an ELISA that recognizes human VEGF121 and VEGF165 (as described in Section 9.1.1.1). Intratumoral VEGF levels were normalized to the total tumor protein concentration, while pathologic plasma human VEGF levels were expressed in pg/mL of plasma.
Experimental Design. The experimental design was reported in Section 9.1.2.2.

[2] = tested on: soluble VEGF121 and VEGF165 isoforms; test: ELISA of soluble VEGF production in multiple human tumor cell lines (EC50); type: cell-based; conditions: 18 human tumor cell lines
Method: Study Design. […] In these experiments, cultures were established under normoxic conditions (21% oxygen). […] Cells requiring induction of VEGF production were incubated under hypoxic conditions (1% oxygen). At the completion of treatment, the conditioned media were collected and assayed by ELISA (as described in Section 9.1.1.1) for soluble VEGF121 and VEGF165 isoforms; results were calculated as percentage inhibition relative to vehicle treated controls. EC50 values were calculated from the dose concentration response curves.

[3] = tested on: VEGF-A; test: Patients with Kaposi Sarcoma: circulating serum and plasma VEGF-A levels; type: in vivo, human
Text: Assaying secreted cytokines characteristic for KS: To measure the effect of a Compound on KS, serum and plasma may be evaluated for levels of VEGF, VEGF-C, VEGF-D, VEGF-R1, VEGF-R2, VEGF165b, P1GF, IL-6, IL-8 and IL-10 at baseline (pre-dose of a Compound on Day 1) and mid-cycle (e.g., Day 15) of cycle 1, on Day 1 of all subsequent cycles, and at the end of the study. Depending on the results of these assays, other potential serum markers characteristic for KS may also be measured.

[4] = tested on: Kaposi Sarcoma lesions; test: Patients with Kaposi Sarcoma: cutaneous lesion size and quantity; type: in vivo, human
Method: Subjects with HIV-associated KS may receive continuous daily treatment with a Compound being administered BID for up to 48 weeks. […] Response rate of HIV-associated KS to a Compound is an indicator of efficacy.
Compound Administration: Subjects may be administered a Compound at the following dose levels: 40 mg/dose BID, 80 mg/dose BID, and 100 mg/dose BID. A Compound may be orally administered each day on a BID schedule at approximately the same times each day. Ideally, doses should be taken at ˜12-hour intervals (e.g., at ˜7:00 AM and at ˜7:00 PM). If convenient for the subject, the drug may be taken during or within ˜30 minutes after a meal; however, administration with food is not required. Subjects may continue receiving repeated 4-week cycles of a Compound indefinitely or until termination. Compound administration may be terminated because of, e.g., tumor progression or other progression of KS, or a dose-limiting toxicity.
A medical history should be done within 21 days of administration of a Compound and may be done during the treatment course with a Compound (e.g., the first day of every 4 week cycle) and following such treatment. The medical history may include the following information: • 1. Previous HIV-related and non-HIV related diagnoses. • 2. […] For subjects with <50 total skin and oral lesions, all lesions should be evaluated for changes in number and characteristics. […]

[5] = tested on: HT1080 cells; test: Kinetics of S-phase transit by BrdU incorporation in HT1080 cells; type: cell-based, human; conditions: HT1080, 18-hour treatment
Method: Experimental Design. HT 1080 cells are exposed to BrdU (bromodeoxyuridine, a synthetic nucleoside that is an analogue of thymidine and is incorporated into DNA during the S phase of cell division) (FITC BrdU Flow Kit, BD Pharmingen catalog #552598). Cells are grown and treated as described in Section 9.3.1.3 above with the exception that one hour prior to harvesting by trypsinization, BrdU (final concentration 1 μM) is added to each culture for 1 hour. Cells actively replicating DNA during this brief time incorporate the BrdU into the DNA, which can then be quantitated. BrdU content is quantitated with using the FITC BrdU Flow Kit as instructed by the manufacturer. The process includes fixation (paraformaldehyde) and DNA staining with 7-AAD (7-amino-actinomycin D) followed by incubation with a fluoro-tagged anti-BrdU antibody that specifically recognizes BrdU incorporated into DNA. Dual channel FACS analysis permits assessment of both the DNA content of individual cells and the rate of transit across the S-phase, which is assessed based upon BrdU incorporation over the one hour treatment period.

COc1ccc(C2c3[nH]c4ccc(Cl)cc4c3CCN2C(=O)Oc2ccc(Cl)cc2)cc1 (racemic) [Compound #10]
pathologic human VEGF levels in tumors and in plasma (in words) ([1]; all Compound #10 dose groups (0.3 to 10 mg/kg oral), 18 days): significantly suppressed
human VEGF reductions (in words) ([1]; all dose levels of >=1 mg/kg BID): essentially maximal
antitumor activity, tumor size over time (in words) ([1]; dose levels of >=1 mg/kg BID): maximum antitumor activity
tumor and pathologic plasma human VEGF concentrations (in words) ([1]; suboptimal dose of 0.3 mg/kg BID): partial reductions
EC50 values for cell lines showing VEGF inhibition (in words) [2]: low nanomolar range
circulating serum VEGF-A levels (in words) ([3]; patients (FIG. 35A)): dose responsive reduction
circulating plasma VEGF-A levels (in words) ([3]; patients (FIG. 35B)): dose responsive reduction
lesion size (in words) ([4]; patients with Kaposi Sarcoma (FIG. 34)): reduced
reduction in the number of raised lesions ([4]; patients with Kaposi Sarcoma labeled PR (FIG. 34)): ≥ 50%
BrdU incorporation by individual cells during the one-hour period vs DMSO control (in words) [5]: incorporated less BrdU
percentage of cells residing in S-phase (in words) ([5]; increasing doses): net increase
